According to patent US12414935B2, “Compounds and methods for the treatment of parasitic diseases” (WASHINGTON UNIVERSITY, priority 2019, dated 2025):

Experiments:
C. parvum [1] = experiment: C. parvum in vitro EC50 assay in ALI culture; assay type: cell-based; conditions: Cryptosporidium parvum, 48 hr, Mean +/- S.D., N = 2, 5 pt curve
Procedure: (§1) In vitro assays measuring the EC50 value for C. parvum infection may be run to determine the efficacy of the compounds. For example, human ileocecal adenocarcinoma (HCT-8) cells can be obtained from ATCC and maintained in T-75 tissue culture flasks with RPMI 1640 medium with HEPES, sodium pyruvate (1 mM), and L-glutamine (ATCC) supplemented with 10% horse serum (ATCC) and 120 U/ml penicillin and 120 μg/ml streptomycin. Cells can be plated into 384-well, tissue culture-treated, black-walled, clearbottom microwell plates (BD Falcon) at a density of 8,850 cells/well and allowed to grow to confluence. The cells may then be inoculated with 5.5×10^3 primed C. parvum oocysts (Bunchgrass Farms, Deary, ID) suspended in inoculation medium (RPMI 1640 without horse serum). Oocysts may be primed for excystation by following a previously described protocol (J. Eukaryot. Microbiol. 46:56S-57S). Briefly, oocysts can be treated for 10 min with 10 mM HCl at 37° C., centrifuged, and treated with a 2 mM solution of sodium taurocholate (Sigma-Aldrich) in phosphate-buffered saline (PBS) with Ca^2+ and Mg^2+. The suspension can be incubated for 10 min at 16° C. and then diluted in inoculation medium and added to each well. Infected cells are incubated at 37° C. for 3 h, at which point an equal volume of growth medium containing 20% horse serum (total serum concentration of 10%) is produced. Compounds are diluted and assayed at fixed doses (e.g., 0.12, 0.37, 1.1, 3.3, and 10 μM, with each concentration, n=14) for the generation of EC50 curves. In the case of final EC50 curves, three wells are left uninfected but treated with each of the corresponding concentrations of the compound to assess for background staining. All curves are generated using the log[inhibitor] versus response variable slope equation in GraphPad Prism, with the bottom constraint set equal to 0.
(§2) Such assays were prepared on HTC-8 cells and ALI. Table 2 illustrates measured EC50 at various time points.
Briefly, i3T3 cells were plated in CM media. Spheroids were plated on the cells. […]

C. parvum [2] = experiment: C. parvum in vitro EC50 assay in HCT-8 cells; assay type: cell-based; conditions: Cryptosporidium parvum, HCT8 cells, 24 hr, Mean +/- S.D., N = 3, 9 pt curve
Procedure: as §1, §2

EC50 (C. parvum [1]) [µM]	EC50 (C. parvum [2]) [µM]	Structure (SMILES)
0.028 ± 0.002	0.011 ± 0.003	COc1ccc(NC(=O)N2CCCCN3[C@H](CN(C)S(C)(=O)=O)[C@H](c4ccc(C#Cc5ccccc5)cc4)[C@@H]3C2)cc1 [Compound 1, (8R,9R,10S)-N-(4-methoxyphenyl)-10-((N-methylmethylsulfonamido)methyl)-9-(4-(phenylethynyl)phenyl)-1,6-diazabicyclo[6.2.0]decane-6-carboxamide]
0.113 ± 0.015	0.033 ± 0.009	COc1ccc(NC(=O)N2CCCCN3[C@H](CN(C)C)[C@H](c4ccc(C#Cc5ccccc5)cc4)[C@@H]3C2)cc1 [Compound 2, (8R,9S,10S)-10-((dimethylamino)methyl)-N-(4-methoxyphenyl)-9-(4-(phenylethynyl)phenyl)-1,6-diazabicyclo[6.2.0]decane-6-carboxamide]
25.9 ± 4.14	2.19 ± 0.378	CC(=O)Oc1ccccc1C(=O)Nc1ncc([N+](=O)[O-])s1 [Nitazoxanide, reference compound]
